Results as given in US9101638B2, “Boronic acid derivatives and therapeutic uses thereof” (Rempex Pharmaceuticals, Inc., priority 2013, dated 2015).

How the values were obtained:
[1] = molecular target: OXA-48 (Klebsiella pneumoniae, UniProt Q6XEC0); assay: Inhibition of nitrocefin cleavage by purified OXA-48; assay type: biochemical; details: nitrocefin reporter substrate, purified enzyme; read-out: Ki (OXA-48, NCF)
Method: (§1) Purified enzymes were mixed with various concentrations of inhibitors in reaction buffer and incubated for 10 min at room temperature. Nitrocefin was added and substrate cleavage profiles were recorded at 490 nm every 10 sec for 10 min.

[2] = tested on: KP1005 (CTX-M-14); assay: Potentiation of aztreonam, strain KP1005; assay type: cell-based
[3] = molecular target: KPC-2 (Klebsiella pneumoniae, UniProt Q9F663); assay: Inhibition of nitrocefin cleavage by purified KPC-2; assay type: biochemical; details: nitrocefin reporter substrate, purified enzyme; read-out: Ki (KPC-2, NCF)
Sequence of KPC-2 (Q9F663 25-293, looked up, species assumed): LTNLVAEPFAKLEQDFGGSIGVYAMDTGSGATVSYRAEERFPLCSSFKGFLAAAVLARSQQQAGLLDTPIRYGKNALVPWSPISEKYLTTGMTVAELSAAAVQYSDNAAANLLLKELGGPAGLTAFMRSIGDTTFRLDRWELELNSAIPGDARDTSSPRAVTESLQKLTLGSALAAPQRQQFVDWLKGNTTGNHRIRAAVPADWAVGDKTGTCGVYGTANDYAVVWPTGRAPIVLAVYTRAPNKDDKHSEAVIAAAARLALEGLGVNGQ
Method: as §1

[4] = tested on: PAM1154/KPC-2; assay: Biapenem potentiation in PAM1154/KPC-2 (MexAB-OprM lacking); assay type: cell-based, Pseudomonas aeruginosa
Method: (§2) Efflux of BLIs from Pseudomonas aeruginosa by the MexAB-OprM efflux pump was also evaluated. […] Due to expression of KPC-2 both strains became resistant to biapenem. […] Potency of BLIs to potentiate biapenem in these strains was determined. […] The ratio of MPC64 values for each BLI in PAM1032/KPC-2 (efflux proficient) and PAM1154/KPC-2 (efflux deficient) was determined to generate the Efflux Index (EI).

[5] = tested on: KP1004 (K-2); assay: Potentiation of aztreonam, strain KP1004; assay type: cell-based; details: minimum BLI concentration inhibiting growth with 4 μg/mL aztreonam
[6] = tested on: ECL1002; assay: Potentiation of aztreonam, strain ECL1002; assay type: cell-based; details: minimum BLI concentration inhibiting growth with 4 μg/mL aztreonam
[7] = tested on: ec308 (SHV-5); assay: Potentiation of tigemonam, strain ec308; assay type: cell-based; details: minimum BLI concentration inhibiting growth with 4 μg/mL tigemonam
[8] = tested on: PAM1032/KPC-2; assay: Biapenem potentiation in PAM1032/KPC-2 (MexAB-OprM overexpressed); assay type: cell-based, Pseudomonas aeruginosa; details: BLI potency to decrease biapenem MIC 64-fold, 32 to 0.5 μg/ml; efflux proficient strain
Method: as §2

[9] = molecular target: CTX-M-14 (Escherichia coli, UniProt Q9L5C7); assay: Inhibition of nitrocefin cleavage by purified CTX-M-14; assay type: biochemical; details: nitrocefin reporter substrate, purified enzyme; read-out: Ki (CTX-M-14, NCF)
Sequence of CTX-M-14 (Q9L5C7 entry or part of it): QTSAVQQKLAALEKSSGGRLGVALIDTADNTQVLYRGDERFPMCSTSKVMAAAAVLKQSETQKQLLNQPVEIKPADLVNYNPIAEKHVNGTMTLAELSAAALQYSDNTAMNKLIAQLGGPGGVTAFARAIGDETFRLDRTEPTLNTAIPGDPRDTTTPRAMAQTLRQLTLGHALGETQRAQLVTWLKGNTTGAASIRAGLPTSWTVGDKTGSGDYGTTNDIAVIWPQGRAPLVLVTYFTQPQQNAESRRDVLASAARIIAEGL
Method: as §1

[10] = tested on: ec308 (SHV-5); assay: Potentiation of aztreonam, strain ec308; assay type: cell-based; details: minimum BLI concentration inhibiting growth with 4 μg/mL aztreonam
[11] = tested on: KP1009 (CTX-M-15); assay: Potentiation of tigemonam, strain KP1009; details: minimum BLI concentration inhibiting growth with 4 μg/mL tigemonam
[12] = tested on: ec302 (TEM-10); assay: Potentiation of aztreonam, strain ec302; assay type: cell-based
[13] = tested on: EC1010 (CMY-6); assay type: cell-based
[14] = tested on: KP1009 (CTX-M-15); assay: Potentiation of aztreonam, strain KP1009; assay type: cell-based
[15] = tested on: ec302 (TEM-10); assay: Potentiation of tigemonam, strain ec302; assay type: cell-based; details: minimum BLI concentration inhibiting growth with 4 μg/mL tigemonam
[16] = tested on: EC1010 (CMY-6); assay: Potentiation of aztreonam, strain EC1010; assay type: cell-based
[17] = molecular target: SHV-12 (Klebsiella pneumoniae, UniProt P0AD64, E235K/G234S/L31Q); assay: Inhibition of nitrocefin cleavage by purified SHV-12; assay type: biochemical; details: nitrocefin reporter substrate, purified enzyme; read-out: Ki (SHV-12, NCF)
Sequence of SHV-12 (P0AD64 22-286 L31Q/G234S/E235K): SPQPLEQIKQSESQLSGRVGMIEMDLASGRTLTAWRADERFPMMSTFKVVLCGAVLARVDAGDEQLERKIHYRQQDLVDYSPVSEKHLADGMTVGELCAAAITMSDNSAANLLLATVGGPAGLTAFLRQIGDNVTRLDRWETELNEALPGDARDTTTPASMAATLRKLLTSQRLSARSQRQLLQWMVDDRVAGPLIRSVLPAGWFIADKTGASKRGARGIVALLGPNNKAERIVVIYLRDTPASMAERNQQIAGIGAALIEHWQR
Method: as §1

Sequence of OXA-48 (Q6XEC0 23-265 limits assumed): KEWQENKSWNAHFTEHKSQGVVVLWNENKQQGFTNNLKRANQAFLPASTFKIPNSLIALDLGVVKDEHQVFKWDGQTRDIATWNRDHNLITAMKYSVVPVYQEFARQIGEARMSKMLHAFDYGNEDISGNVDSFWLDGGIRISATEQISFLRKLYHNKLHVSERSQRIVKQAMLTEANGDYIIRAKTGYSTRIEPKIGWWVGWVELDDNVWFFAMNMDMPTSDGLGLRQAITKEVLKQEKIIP

| Compound | Ki [1] [nM] | AZT MPC4 CTX-M-14 KP1005 [2] | Ki [3] [nM] | PAM1154/KPC-2 Biapenem MPC64 [4] | AZT MPC4 K-2 KP1004 [5] | AZT MPC4 ECL1002 [6] | TIG MPC4 SHV-5 ec308 [7] | PAM1032/KPC-2 Biapenem MPC64 [8] | Ki [9] [nM] | AZT MPC4 SHV-5 ec308 [10] | TIG MPC4 CTX-M-15 KP1009 [11] | AZT MPC4 TEM-10 ec302 [12] | TIG MPC4 CMY-6 EC1010 [13] | AZT MPC4 CTX-M-15 KP1009 [14] | PAM11154/KPC-2 Biapenem MPC64 ([4]; BLI potency to decrease biapenem MIC 64-fold, 32 to 0.5 μg/ml, efflux deficient strain) | TIG MPC4 TEM-10 ec302 [15] | AZT MPC4 CMY-6 EC1010 [16] | Ki [17] [nM] |
| --- | --- | --- | --- | --- | --- | --- | --- | --- | --- | --- | --- | --- | --- | --- | --- | --- | --- | --- |
| CSCC(=O)N[C@H]1Cc2cccc(C(=O)O)c2OB1O [Compound 13, (R)-2-hydroxy-3-(2-(methylthio)acetamido)-3,4-dihydro-2H-benzo[e][1,2]oxaborinine-8-carboxylic acid] | < 1 | X (key: X = MIC of less than 1 μg/mL; Y = MIC of 1 μg/mL to 10 μg/mL; Z = MIC of greater than 10 μg/mL) | > 10 | X (key: X = Less than 10; Y = 10 to 40; Z Greater than 40) | X (X = MIC of less than 1 μg/mL) | X (X = MIC of less than 1 μg/mL) | X (X = MIC of less than 1 μg/mL) | Y (Y = 10 to 40) | < 1 | X (X = MIC of less than 1 μg/mL) | X (X = MIC of less than 1 μg/mL) | Y (key: X = MIC of less than 1 μg/mL; Y = MIC of 1 μg/mL to 10 μg/mL; Z = MIC of greater than 10 μg/mL) | X (key: X = MIC of less than 1 μg/mL; Y = MIC of 1 μg/mL to 10 μg/mL; Z = MIC of greater than 10 μg/mL) | – | – | – | – | – |
| CN(C)C(=O)CC(=O)N[C@H]1Cc2cccc(C(=O)O)c2OB1O [Compound 10, (R)-3-(3-(dimethylamino)-3-oxopropanamido)-2-hydroxy-3,4-dihydro-2H-benzo[e][1,2]oxaborinine-8-carboxylic acid] | – | Y (key: X = MIC of less than 1 μg/mL; Y = MIC of 1 μg/mL to 10 μg/mL; Z = MIC of greater than 10 μg/mL) | > 10 | – | X (X = MIC of less than 1 μg/mL) | Y (Y = MIC of 1 μg/mL to 10 μg/mL) | Y (Y = MIC of 1 μg/mL to 10 μg/mL) | Z (Z Greater than 40) | – | Y (Y = MIC of 1 μg/mL to 10 μg/mL) | X (X = MIC of less than 1 μg/mL) | Y (key: X = MIC of less than 1 μg/mL; Y = MIC of 1 μg/mL to 10 μg/mL; Z = MIC of greater than 10 μg/mL) | X (key: X = MIC of less than 1 μg/mL; Y = MIC of 1 μg/mL to 10 μg/mL; Z = MIC of greater than 10 μg/mL) | X (key: X = MIC of less than 1 μg/mL; Y = MIC of 1 μg/mL to 10 μg/mL; Z = MIC of greater than 10 μg/mL) | Y (Y = 10 to 40) | Z (Z = MIC of greater than 10 μg/mL) | X (key: X = MIC of less than 1 μg/mL; Y = MIC of 1 μg/mL to 10 μg/mL; Z = MIC of greater than 10 μg/mL) | < 1 |
